Where two headings read alike, the source gives them in different places.
Key:
A549 cells = experiment: Colony formation assay in SLC25A23 shRNA knock-down A549 cells treated with senescence inducers; assay type: cell-based; conditions: three independent shRNAs targeting SLC25A23
DR5 = experiment: Western blot of DR5 induction in A549 cells treated with salinomycin and NAC; assay type: cell-based; conditions: salinomycin plus NAC
Source text: (Fig. 3A). This notion was also supported by the western blot analysis. We observed that an upregulation of death receptor 5 (DR5), cleavage of caspase 3 and 8 (cl-CASP8 and 3), indicates extrinsic apoptosis activation. […] In Figure 3B, we noticed the upregulation of cJUn and DR5 by salinomycin treatment. This has been denoted by the past studies showing salinomycin could modulate autophagy to induce ROS (Verdoodt 2012). The elevated ROS led to cJun upregulation and NF-kB activation to increase the DR5 expression (Fu 2010). To validated molecular mechanism in our senescent models, we knocked-down cJun, NF-kB2 and Nrf2 using shRNA. […]
• Figure 1: CRISPR-based senolytic screen identifies SLC25A23 as a senolytic target • (A). […] Changes in library representation after 10 days doxycycline treatment were determined by Illumina deep-sequencing. • (B). gRNAs prioritized for further analysis were selected by the fold depletion of abundance in S2 and S1 samples compared with that in P2 and P2 samples, using methods as described previously (Evers et al., Nat Biotech, 2016). […] Cell viability was assessed by colony formation assay in the A549 cells stably infected with doxycycline-inducible Cas9 (iCas9) lentiviral vectors and a guide RNAs target SLC25A23 lentiviral vector. […] Cell viability was assessed by colony formation assay in the A549 and MDA-MB-231 cells. […]

A549 lung cancer cells = assay type: in vivo, BALB/c nude mice
Source text: (§1) In order to obtain a synergistic effect, we combed low doses of DR5 agonist antibody either IgG-conatumumab or IgA-conatumumab with salinomycin, as senolytic cocktails. […] To test this senolytic cocktail in vivo, we used both immunodeficient and immunocompetent mouse models. We engrafted A549 cells into immunodeficient nude mice and Hepa1-6 liver cancer cells in syngeneic immunocompetent C57BL/6 mice. After tumors were established, we treated with alisertib to induce senescence and combinations of the two senolytic drugs.
(§2) Schematic of iCas9-associated senolytic CRISPR screen workflow. A549 cells were infected with a doxycycline-inducible Cas9 (iCas9) lentiviral vector. Next, Brunello lentiviral whole genome-wide gRNA collection virus was introduced to the A549-iCas9 cells. […] Changes in library representation after 10 days doxycycline treatment were determined by Illumina deep-sequencing. • (B). gRNAs prioritized for further analysis were selected by the fold depletion of abundance in S2 and S1 samples compared with that in P2 and P2 samples, using methods as described previously (Evers et al., Nat Biotech, 2016). […] Cell viability was assessed by colony formation assay in the A549 cells stably infected with doxycycline-inducible Cas9 (iCas9) lentiviral vectors and a guide RNAs target SLC25A23 lentiviral vector.

[1] = test system: Hepa1-6 liver cancer cells; assay type: in vivo, C57BL/6 mice
Source text: as §1, §2

senescent cells = experiment: Cell morphology imaging of senescent cells treated with salinomycin
[2] = test system: alisertib-induced senescent and proliferating A549; experiment: Western blot of cell death biomarkers in alisertib-induced senescent and proliferating A549
[3] = test system: lung (A549), breast (MDA-MB-231, MCF-7, T47D) and liver (SK-Hep1) cancer models; experiment: Colony formation assay, senescent versus proliferating cancer cells treated with salinomycin

COc1ccc2c(c1)C1(CC1c1ccc3c(C=Cc4ccc(CN5CC(C)OC(C)C5)cc4)n[nH]c3c1)C(=O)N2 (stereo not shown) [CFI-400945]
sensitivity of SLC25A23 suppressed cells to senescence inducers (A549 cells): highly sensitive

CC(=O)N[C@@H](CS)C(=O)O [N-Acetyl Cysteine (NAC), N-Acetyl Cysteine]
DR5 upregulation in salinomycin treated cells (DR5): could reserve the DR5 upregulation

COc1cc(Nc2ncc3c(n2)-c2ccc(Cl)cc2C(c2c(F)cccc2OC)=NC3)ccc1C(=O)O [alisertib]
sensitivity of SLC25A23 suppressed cells to senescence inducers (A549 cells): highly sensitive | tumor growth (A549 lung cancer cells; A549 in nude mice, 25 mg kg-1 alisertib, 1.5 mg kg-1 salinomycin, 5 µg per dose conatumumab (2.5 µg in three-way combination)): limited tumor growth inhibition | tumor growth ([1]; Hepa1-6 in C57BL/6 mice, 25 mg kg-1 alisertib, 1.5 mg kg-1 salinomycin, 0.3 µg per dose MD5-1): limited tumor growth inhibition

COc1cc([C@@H]2c3cc4c(cc3[C@@H](O[C@@H]3O[C@@H]5CO[C@@H](C)O[C@H]5[C@H](O)[C@H]3O)[C@H]3COC(=O)[C@H]23)OCO4)cc(OC)c1O [etoposide]
sensitivity of SLC25A23 suppressed cells to senescence inducers (A549 cells): highly sensitive

CC[C@@H](C(=O)[C@@H](C)[C@@H](O)[C@H](C)[C@@H]1O[C@@H]([C@@H](CC)C(=O)O)CC[C@@H]1C)[C@H]1O[C@]2(C=C[C@@H](O)[C@]3(CC[C@@](C)([C@H]4CC[C@](O)(CC)[C@H](C)O4)O3)O2)[C@H](C)C[C@@H]1C [salinomycin]
cell death phenotype under the microscope (senescent cells): PANoptosis phenotype | Microtubule-associated protein 1A/1B-light chain 3 (LC3) [2]: upregulation | cJUn [2]: upregulation | caspase 3 and 8 (cl-CASP8 and 3) [2]: cleavage | cleaved Gasdermin-D (cl-GSDMD) [2]: upregulation | death receptor 5 (DR5) [2]: upregulation | mixed lineage kinase domain-like protein (MLKL) phosphorylation [2]: increased phosphorylation | tumor growth (A549 lung cancer cells; mouse, in vivo): limited tumor growth inhibition | killing of senescent cells versus proliferating cells [3]: preferential killing of senescent cells over proliferating cells | tumor growth ([1]; mouse, in vivo): limited tumor growth inhibition

— EP4631501A1, “COMBINATIONS OF A CALCIUM HOMEOSTASIS DISRUPTOR WITH A DEATH RECEPTOR 5 AGONIST FOR TREATING CANCER” (Stichting Het Nederlands Kanker Instituut- Antoni van …, priority 2024, dated 2025)
